Reference: publication PMC5636972 (Cell Death & Disease, 2017)

Experiments:
[1] = tested on: Colo205 cells; assay: MTT cell viability assay, Colo205; assay type: cell-based
Source text: (§1) To evaluate the potency of I-Trp in killing these cancer cell lines, we performed MTT assay to determine the cell viability of target cells. […] The cancer cells with higher expression levels of CCT-β were indeed more sensitive to I-Trp.

[2] = tested on: MCF-10A cells; assay: MTT cell viability assay, non-tumorigenic MCF-10A; assay type: cell-based; details: for EC50: MTT, 72 h, normal cells
Source text: as §1

[3] = tested on: MKN-45 cells; assay: MTT cell viability assay, MKN-45; assay type: cell-based
Source text: as §1

[4] = tested on: HCT116 cells; assay: MTT cell viability assay, HCT116; assay type: cell-based
Source text: as §1

[5] = tested on: MDA-MB-231 cells; assay: MTT cell viability assay, MDA-MB-231; assay type: cell-based; details: for killing these cancer cells (in words): MDA-MB-231, MKN-45, HCT116, Colo205, Table 1; for EC50: MTT, 72 h
Source text: as §1

[6] = tested on: I-Trp-induced apoptosis; assay: Reversal of I-Trp-induced apoptosis by pretreatment with inhibitors (sub-G0 flow cytometry); assay type: cell-based
Protocol: Figure 4 Effect of I-Trp on the levels of intracellular Ca^2+. (a) I-Trp induces intracellular Ca^2+ release in a concentration-dependent manner. Cells were pretreated with BAPTA/AM (negative control) for 1 h, with MCN-A-343 (positive control) or different concentrations of I-Trp and incubated with Fluo-4 for 40 min. After incubation, the fluorescence signal was immediately measured using a fluorescence microplate reader by excitation at 509 nm and emission at 516 nm. (b) Cells were pre-incubated with BAPTA/AM (1–20 μM) for 1 h prior to treatment with EC50 concentrations of I-Trp for 72 h. Cell apoptosis was assessed via PI-based flow cytometric analysis. Data are expressed as mean±S.D. ***P<0.001, significant difference as compared to control. ^#P<0.05, ^##P<0.01 and ^###P<0.001 significant difference as compared to I-Trp alone
Next, we used ERK1/2 inhibitor U0126,[33], [34] JNK inhibitor SP600125,[35], [36] and p38 inhibitor SB203580[37] to confirm the involvement of MAPKs in I-Trp-induced apoptosis. We pretreated the cancer cell lines with 0.5–10 μM U0126, 1–10 μM SP600125, or 1–10 μM SB203580 for 1 h and subsequently treated them with I-Trp to detect the sub-G0 cell accumulation by flow cytometry.
(§2) Cells (3 × 10^5) were fixed in 70% ice-cold EtOH for 30 min at RT. Cells were washed with PBS once and then incubated with propidium iodide (PI) staining solution (PBS containing 0.1 % BSA, 0.1% RNase A, and […] PI) for 30 min at RT in the dark. After the incubation, the cells were analyzed by flow cytometry to assess their DNA content.

[7] = tested on: caspases; assay: Caspase activity assay (fluorescent substrates); assay type: cell-based; details: EC50 concentrations, 72 h, the four cancer cell lines
Protocol: The caspase activity assay was performed according to the manufacturer’s guidelines (BioVision). Briefly, cell lysates (200 μg) were diluted in 50 μl of cell lysis buffer (supplied by the kit). Equal volumes of the 2 × reaction buffer (supplied by the kit) containing 10 mM DTT were added to the cell lysates. Subsequently, 50 μM of fluorescent dye-conjugated caspase substrate was individually added to the designated caspase activity assay. After a 2-h incubation, free fluorescent dyes in the solution were read in a fluorimeter equipped with a 385-nm excitation filter and 510-nm emission filter.

[8] = tested on: MDA-MB-231, MKN-45, HCT116, and Colo205 cells; assay: Long-term colony formation assay; assay type: cell-based; details: 0.31 to 2.5 μM, 7 days
Source text: Next, we investigated the long-term effect of I-Trp on proliferation of the target cells using the colony formation assay.

[9] = tested on: intracellular Ca^2+; assay: Fluo-4 intracellular Ca2+ assay; assay type: cell-based; details: the four cancer cell lines, Fluo-4, 40 min
Protocol: We used a Fluo-4 direct calcium assay kit from Invitrogen (catalog item F10471) to measure the intracellular calcium response to I-Trp in target cancer cell lines. Cancer cell lines were cultured in 96-well plates with media containing 10% FBS. After reaching confluence, cancer cells were treated with MCN-A-343 (positive control), BATPA (negative control), or I-Trp and incubated with Fluo-4 direct calcium reagent loading solution for 40 min. After incubation, the fluorescence signal was immediately measured using a fluorescence microplate reader at excitation and emission of 509 and 516 nm, respectively.

[10] = tested on: MDA-MB-231, MKN-45, HCT116, and Colo205 cells; assay: PI-based flow cytometric sub-G0 apoptosis assessment; assay type: cell-based; details: 72 h, different concentrations, the four cancer cell lines
Protocol: as §2

[11] = tested on: MDA-MB-231 cells; assay: as above; assay type: cell-based; details: MDA-MB-231 with CCT-β shRNA clones, 10 μM, 72 h
Protocol: as §2

[12] = tested on: CCT-β and β-tubulin mRNA; assay: Real time qPCR for CCT-β and β-tubulin mRNA; assay type: cell-based; details: HCT116, MKN-45, MDA-MB-231, Colo205
Source text: Mean values ± S.D. from three independent samples are shown. The RT-PCR experiments reveal that the mRNA levels of CCT-β and β-tubulin were not changed after I-Trp treatment in the tested cancer cells.

[13] = tested on: proteasome activity; assay: Proteasome activity assay in cell lysates; assay type: cell-based
Protocol: After being treated with I-Trp for designated time periods, cells were collected and resuspended in cell lysis buffer (BioVision). Aliquots of cell lysates (100 μg) were incubated with 1 μM of fluorescent proteasome substrate (BioVision) for 30 min at 37 °C. The fluorescent intensity was read using a fluorimeter with an exciting wavelength at 355 nm and emission wavelength at […] and presented as relative proteasome activity.

[14] = tested on: β-tubulin; design: method as in PMID 19690144; details: cited from earlier work
[15] = tested on: microtubules; design: method as in PMID 19690144; details: cited from earlier work
[16] = tested on: CCT-β : β-tubulin complex; assay: co-IP with CCT-β antibody, immunoblot for β-tubulin; assay type: cell-based; details: 5 or 10 μM, 6 h; MDA-MB-231, MKN-45, HCT116, Colo205 lysates
Protocol: With GADPH as a protein-loading control, we also confirmed that the input of β-tubulin and CCT-β in the experiments was equal with or without treatment. […] After 24–48 h of I-Trp treatment, cells underwent apoptosis to trigger proteasome activity for cellular protein degradation as reported previously.[14]
(a) Using CCT-β antibody to co-IP the complex, and then detecting the quantity of trapped β-tubulin with western blotting using β-tubulin antibody. […] The cancer cells were treated with I-Trp for the designated time periods. Cell lysates were examined using the proteasome activity assay. (c) The changed expression levels of ER stress protein markers upon I-Trp treatment
The cell lysates (100 μg) were boiled for 5 min in SDS sample buffer (62.5 mM Tris-HCl pH 6.7, 1.25% SDS, 12.5% glycerol, and 2.5% β-mercaptoethanol), and the proteins were separated via SDS-PAGE. For western blotting, proteins were transferred onto a PVDF membrane (Millipore, MA, USA) and incubated with different antibody agents. After incubation with horseradish peroxidase (HRP)-conjugated secondary antibody, immuno-reactive protein bands were visualized using the enhanced chemiluminescence (ECL) system (Amersham Bioscience, Tokyo, Japan).

Row | EC50 ([1]; 72 h) [µM] | EC50 ([3]; 72 h) [µM] | EC50 ([4]; 72 h) [µM] | EC50 [5] [µM] | Structure (SMILES) | EC50 [2] [µM] | further results
1 | 1.6 | 2.5 | 1.1 | 3.75 | COC(=O)C(Cc1c[nH]c2ccccc12)NC(=O)CBr (stereo not drawn) [Compound 1b] | > 20 | killing these cancer cells (in words) [5]: almost equipotent as I-Trp (1a)
2 | > 20 | > 20 | > 20 | 19.5 | COC(=O)C(Cc1c[nH]c2ccccc12)NC(=O)CCl (stereo not drawn) [Compound 1c] | > 20 | killing these cancer cells (in words) [5]: mostly inactive
3 | > 20 | > 20 | > 20 | > 20 | COC(=O)C(Cc1c[nH]c2ccccc12)NC(=O)C(Cl)Cl (stereo not drawn) [Compound 1d] | > 20 | –

Second part, the molecule before the results:

Row | Structure (SMILES) | EC50 ([1]; 72 h) [µM] | EC50 ([3]; 72 h) [µM] | EC50 ([4]; 72 h) [µM] | EC50 [5] [µM] | EC50 [2] [µM] | further results
4 | COC(=O)C(Cc1c[nH]c2ccccc12)NC(=O)C[N+](=O)[O-] (stereo not drawn) [Compound 1e] | 15.9 | 14.1 | 20.9 | > 20 | > 20 | –
5 | COC(=O)C(Cc1c[nH]c2ccccc12)NC(=O)CC(F)(F)F (stereo not drawn) [Compound 1f] | > 20 | > 20 | > 20 | > 20 | > 20 | –
6 | COC(=O)C(Cc1c[nH]c2ccccc12)NC(=O)C(F)(F)F (stereo not drawn) [Compound 1g] | > 20 | > 20 | > 20 | > 20 | > 20 | –
7 | COC(=O)C(Cc1c[nH]c2ccccc12)NC(=O)CC#N (stereo not drawn) [Compound 1h] | > 20 | > 20 | > 20 | > 20 | > 20 | –
8 | COC(=O)C1Cc2c([nH]c3ccccc23)C(c2ccccc2)N1C(=O)CCl (stereo not drawn) [Compound 3] | – | – | – | – | – | EC50 ([1]; Homo sapiens, COLO 205, 72 h): 8.1 µM; EC50 ([2]; Homo sapiens, MCF-10A): > 20 µM; EC50 ([3]; Homo sapiens, MKN-45, 72 h): 4.7 µM; EC50 ([4]; Homo sapiens, HCT-116, 72 h): 3.3 µM; EC50 ([5]; Homo sapiens, MDA-MB-231): 2.7 µM; killing these cancer cells (in words) [5]: effectively killed cancer cells
9 | COC(=O)C1Cc2c([nH]c3ccccc23)C(c2ccccc2)N1C(=O)CI (stereo not drawn) [Compound 4] | – | – | – | – | – | EC50 ([1]; Homo sapiens, COLO 205, 72 h): 0.99 µM; EC50 ([2]; Homo sapiens, MCF-10A): ~20 µM; toxicity relative to doxorubicin on MCF-10A ([2]; MCF-10A): significantly less (~fivefold) toxic compared to doxorubicin; EC50 ([3]; Homo sapiens, MKN-45, 72 h): 1.6 µM; EC50 ([4]; Homo sapiens, HCT-116, 72 h): 0.54 µM; EC50 ([5]; Homo sapiens, MDA-MB-231): 0.59 µM; potency relative to doxorubicin ([5]; cancer cell lines of Table 1): slightly less (~twofold) potent than doxorubicin
10 | N#CC(=C(/N)Sc1ccccc1N)/C(C#N)=C(/N)Sc1ccccc1N [Compound U0126] | – | – | – | – | – | reversal of I-Trp-induced apoptosis ([6]; MKN-45 cells, 0.5–10 μM pretreatment 1 h): could not reverse the I-Trp-induced apoptosis
11 | COc1cccc2c1C(=O)c1c(O)c3c(c(O)c1C2=O)C[C@@](O)(C(=O)CO)C[C@@H]3O[C@H]1C[C@H](N)[C@H](O)[C@H](C)O1 [Doxorubicin, reference compound] | – | – | – | – | – | EC50 ([1]; Homo sapiens, COLO 205, 72 h): 0.5 µM; EC50 ([2]; Homo sapiens, MCF-10A): 3.8 µM; EC50 ([3]; Homo sapiens, MKN-45, 72 h): 0.24 µM; EC50 ([4]; Homo sapiens, HCT-116, 72 h): 0.26 µM; EC50 ([5]; Homo sapiens, MDA-MB-231): 0.46 µM
12 | COC(=O)[C@@H](Cc1c[nH]c2ccccc12)NC(=O)CI [I-Trp] | 0.9 | 1.27 | 0.88 | 2.5 | > 20 | activities of caspases-2 to -9 [7]: enhanced; toxicity to MCF-10A (in words) ([2]; MCF-10A): non-toxic; colony formation [8]: formed more diffuse or smaller colonies; intracellular Ca^2+ mobilization [9]: induced the intracellular Ca^2+ mobilization in a dose-dependent manner; sub-G0 cell accumulation [10]: dose-dependent sub-G0 cell accumulation; cell death (sub-G0) after knockdown of CCT-β [11]: significantly (P<0.001) reduced cell death from I-Trp exposure; mRNA levels of CCT-β and β-tubulin [12]: not changed; proteasome activities ([13]; MDA-MB-231 cells): less apparent; proteasome activities ([13]; MKN-45, HCT116, and Colo205 cells): elevated in an I-Trp dose-dependent manner; covalent modification of β-tubulin [14]: alkylate Cys^354 of β-tubulin; effect on polymerization/depolymerization of microtubules [15]: does not affect the polymerization/depolymerization of microtubules; disruption of the CCT-β : β-tubulin complex (trapped β-tubulin) [16]: disrupted the CCT-β : β-tubulin complex
13 | C[S+]([O-])c1ccc(-c2nc(-c3ccncc3)c(-c3ccc(F)cc3)[nH]2)cc1 (stereo not drawn) [SB203580] | – | – | – | – | – | reversal of I-Trp-induced apoptosis ([6]; 1–10 μM pretreatment 1 h, the cancer cell lines): reduced the percentage of I-Trp-induced apoptotic cells
14 | Oc1c2ccccc2c2c3c(cccc13)N=N2 [SP600125] | – | – | – | – | – | reversal of I-Trp-induced apoptosis ([6]; MDA-MB-231 and HCT116 cells, 1–10 μM pretreatment 1 h): could not reverse I-Trp-induced apoptosis
